Results on three compounds are retold here after patent US6235753A, “Inhibitors of the production of S-CD23 and the secretion of TNF” (priority 1996, dated 2001).

Like-named read-outs stand apart in the source and are kept apart here.

One assay has as its system TNFα. Put plainly: Inhibition of release of TNFα from human monocytes stimulated by LPS (TNF processing inhibition). Format: cell-based. The following applies: Monocyte, read-out: TNF processing inhibition.
In another assay the target is T1, CD23 proteinase (Homo sapiens, UniProt O14672).
T1 construct: Plasma membranes from RPMI 8866 cells, a human Epstein-Barr virus transformed B-cell line; endogenous in cells; host or cells: RPMI 8866 (human EBV-transformed B-cell line), enriched plasma membranes
T1 sequence (O14672 214-748): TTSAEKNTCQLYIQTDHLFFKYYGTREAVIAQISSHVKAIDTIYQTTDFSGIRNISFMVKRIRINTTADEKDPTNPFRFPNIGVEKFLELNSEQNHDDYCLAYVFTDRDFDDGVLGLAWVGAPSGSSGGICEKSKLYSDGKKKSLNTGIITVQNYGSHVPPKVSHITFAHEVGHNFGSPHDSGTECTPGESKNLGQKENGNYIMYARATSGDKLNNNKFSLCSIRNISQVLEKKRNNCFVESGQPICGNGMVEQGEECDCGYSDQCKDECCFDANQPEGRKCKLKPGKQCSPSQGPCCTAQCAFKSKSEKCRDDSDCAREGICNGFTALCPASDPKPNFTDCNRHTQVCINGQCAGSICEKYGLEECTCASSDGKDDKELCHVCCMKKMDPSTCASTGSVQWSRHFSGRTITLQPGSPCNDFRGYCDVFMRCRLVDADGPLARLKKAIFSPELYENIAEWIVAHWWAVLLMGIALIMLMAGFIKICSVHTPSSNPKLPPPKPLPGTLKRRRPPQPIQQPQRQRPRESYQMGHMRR
Put plainly: RPMI 8866 cell membrane CD23 cleavage activity assay (CD23 proteinase inhibition). Format: biochemical. The conditions noted are these: RPMI 8866 cell membranes.

In assay [1] the target is T2, human recombinant collagenase (Homo sapiens, UniProt P03956).
T2 construct: made in house; host or cells: E. coli
T2 sequence (P03956 100-469): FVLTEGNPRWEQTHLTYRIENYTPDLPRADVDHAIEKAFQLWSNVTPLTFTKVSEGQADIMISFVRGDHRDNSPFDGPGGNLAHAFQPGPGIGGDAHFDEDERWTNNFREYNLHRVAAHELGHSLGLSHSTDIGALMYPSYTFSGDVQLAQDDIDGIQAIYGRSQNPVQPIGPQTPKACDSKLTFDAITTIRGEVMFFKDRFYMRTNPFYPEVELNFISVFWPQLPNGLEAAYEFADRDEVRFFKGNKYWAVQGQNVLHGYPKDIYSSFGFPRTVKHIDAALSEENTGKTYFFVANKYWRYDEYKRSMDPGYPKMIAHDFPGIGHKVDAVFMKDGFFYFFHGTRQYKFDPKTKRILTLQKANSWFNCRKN
Kind of assay: Collagenase Inhibition Assay. The class given is biochemical.
Source text: Collagenase Inhibition Assay:
The collagen was acetylated ^3 H type 1 bovine collagen prepared by the method of Cawston and Murphy (methods in Enzymology 80, 711,1981) The samples were centrifuged to sediment undigested collagen and an aliquot of the radioactive supernatant removed for assay on a scintillation counter as a measure of hydrolysis.

Procedure for CD23 proteinase: Procedure 1: The ability of test compounds to inhibit the release of soluble CD23 was investigated by use of the following procedure.
Cells resuspended in homogenization buffer (20 mM HEPES pH 7.4, 150 mM NaCl, 1.5 mM MgCl2, 1 mM DTI) are broken by N2 cavitation in a Parr bomb and the plasma membrane fraction mixed with other membranes is recovered by centrifugation at 10,000×g. The light pellet is resuspended in 0.2 M potassium phosphate, pH 7.2 using 2 ml per 1-3 g wet cells and the nuclear pellet is discarded. […] The phases are separated by brief centrifugation at 1000×g and the PEG (upper) phase is collected, diluted 3-5 fold with 20 mM potassium phosphate buffer pH 7.4, and centrifuged at 100,000×g to recover membranes in that phase. The pellet is resuspended in phosphate-buffered saline and consists of 3-4 fold enriched plasma membranes as well as some other cell membranes (e.g. lysosomes, Golgi). The membranes are aliquoted and stored at -80° C.
The amount of soluble CD23 made by 0.5 ug membrane protein in a total volume of 50 ul phosphate-buffered saline is measured by EIA and compared to the amount made in the presence of various concentrations of inhibitors. Inhibitors are prepared in solutions of water or dimethylsulfoxide (DMSO) and the final DMSO concentration is not more than 2%.
Procedure for TNFα: Procedure 3: The ability of test compounds to inhibit TNF release was investigated using the following procedure. Assay for inhibition of release of TNFα from human monocytes stimulated by lipopolysaccharide (LPS) endotoxin. […] The cell suspension is aliquoted in 24 well plates, 1 ml per well. Compounds to be tested are dissolved in neat dimethyl sulfoxide (DMSO) and added to culture with the final DMSO concentration at 0.1%. Compounds are added to cells in triplicate wells. TNFα release is stimulated by addition of LPS to the cells at a final concentration of 200 ng/ml. Appropriate control cultures are set up in triplicates also. The plates are incubated for 18-20 hrs at 37° C., 5% CO2, then centrifuged at 1000×g for 5 min. A specific ELISA for human TNFα (SmithKline Beecham) is used to measure TNF levels in the cell-free culture supernatants.

Consider `CNC(=O)[C@H](Cc1ccccc1)NC(=O)[C@H](CC(C)C)[C@H](CSc1cccs1)C(=O)NO` [Comparative Example, reference compound], for which the inhibition (in general, the percentage by which the read-out fell short of the control) at 1 µM in the assay on TNFα (Homo sapiens) is 76.4 ± 0.9%.
`CNC(=O)[C@@H](NC(=O)[C@H](Cc1ccc2ccccc2c1)[C@H](O)C(=O)NO)C(C)(C)C` [Example 1, N'-[3S-Hydroxy-4-(N-hydroxyamino)-2R-(2-naphthylmethyl)succinyl]-S-tert-leucine-N-methylamide] registered an inhibition at 1 µM at CD23 proteinase (at 1 uM) of 88%. The 50% inhibitory concentration (IC50) – broadly, the midpoint of a concentration-inhibition curve – in assay [1] was above 10 µM.
On to `CNC(=O)[C@H](Cc1ccccc1)NC(=O)[C@H](Cc1ccc2ccccc2c1)[C@H](O)C(=O)NO` [Example 2, N'-[3S-Hydroxy-4-(N-hydroxyamino)-2R-(2-naphthylmethyl)succinyl]-S-phenylalanine-N-methylamide], for which, at CD23 proteinase (at 2 uM), the inhibition at 2 µM amounted to 90%. For the same compound, the IC50 in assay [1] (37° C., 18 h, acetylated 3H type 1 bovine collagen, read-out: Collagenase inhibition IC50) is 8.6 µM. Moreover, the inhibition at 1 µM in the assay on TNFα (at 1 uM, human monocytes, LPS 200 ng/ml, 18-20 hrs) was 45%.
